As a reminder, the % inhibition is the change of the read-out against control, counted positive when it falls. A high value points to a response far below the control. For orientation: Km means the concentration of substrate that gives half-maximal velocity.

This note sets out measurements from PMC8425032, “Functional characterization of a highly specific L-arabinose transporter from Trichoderma reesei” (Microbial Cell Factories, 2021).

Assay type in all cases: cell-based
In assay [1] the target is T1, Trire2_104072 (Trichoderma reesei, UniProt Q1EG32).
T1 construct: gene xlt1; full-length RUT-C30 version, yeast codon-optimised synthetic gene; no tag mentioned; P388H version XLT1 from plasmid B1687
T1 sequence (Q1EG32 entry or part of it): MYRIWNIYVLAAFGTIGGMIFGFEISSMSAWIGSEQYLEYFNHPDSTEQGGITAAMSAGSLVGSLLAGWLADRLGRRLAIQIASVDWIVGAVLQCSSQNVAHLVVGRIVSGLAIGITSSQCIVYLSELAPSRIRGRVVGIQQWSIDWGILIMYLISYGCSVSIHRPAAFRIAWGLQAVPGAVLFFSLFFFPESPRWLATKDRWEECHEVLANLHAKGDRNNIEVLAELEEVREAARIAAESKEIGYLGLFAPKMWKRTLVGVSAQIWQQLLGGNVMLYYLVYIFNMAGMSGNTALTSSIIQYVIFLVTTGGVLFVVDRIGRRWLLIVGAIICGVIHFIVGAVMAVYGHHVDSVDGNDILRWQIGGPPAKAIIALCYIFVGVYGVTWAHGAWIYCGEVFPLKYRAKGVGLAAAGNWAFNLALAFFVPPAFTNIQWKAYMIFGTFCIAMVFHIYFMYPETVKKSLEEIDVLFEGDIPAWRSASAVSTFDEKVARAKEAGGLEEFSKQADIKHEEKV
Kind of assay: inhibition of […]-L-arabinose uptake, yeast cells. The settings on record: fivefold excess over 0.167 mM labelled L-arabinose, pH 6.5, 28 °C.

Assay [2] has as its target T2, Trire2_104072 (Trichoderma reesei, UniProt Q1EG32, H388P, form not given).
T2 construct: gene xlt1; full-length RUT-C30 version, yeast codon-optimised synthetic gene; no tag mentioned; P388H version XLT1 from plasmid B1687
Kind of assay: inhibition of […]-L-arabinose uptake, yeast cells. The following applies: 833 µM; fivefold excess over 0.167 mM labelled L-arabinose, pH 6.5, 28 °C.

Assay [3] addresses T2, Trire2_104072. Kind of assay: two-electrode voltage clamp, sugar-induced current, Xenopus oocytes. The settings on record: pH 5.5, -50 mV, sodium-free ND-96 buffer; proton symport.
Assay [4] concerns the target T3, P. chrysogenum AraT (Penicillium rubens, UniProt B6HE12).
T3 construct: gene Pc20g01790; no tag mentioned
T3 sequence (B6HE12 1-511): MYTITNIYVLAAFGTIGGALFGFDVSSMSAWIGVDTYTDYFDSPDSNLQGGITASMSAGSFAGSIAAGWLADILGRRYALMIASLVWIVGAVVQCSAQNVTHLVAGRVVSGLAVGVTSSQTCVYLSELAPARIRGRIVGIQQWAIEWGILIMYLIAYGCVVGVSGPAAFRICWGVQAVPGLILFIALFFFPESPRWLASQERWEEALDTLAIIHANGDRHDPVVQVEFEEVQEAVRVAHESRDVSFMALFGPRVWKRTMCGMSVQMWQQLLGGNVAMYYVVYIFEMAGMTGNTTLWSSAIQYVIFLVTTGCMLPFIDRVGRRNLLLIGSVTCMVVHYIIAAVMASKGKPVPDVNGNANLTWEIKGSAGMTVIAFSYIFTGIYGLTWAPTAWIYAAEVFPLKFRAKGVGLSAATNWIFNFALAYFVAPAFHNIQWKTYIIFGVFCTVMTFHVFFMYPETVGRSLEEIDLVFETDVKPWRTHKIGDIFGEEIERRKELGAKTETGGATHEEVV
Kind of assay: […]-L-arabinose uptake, yeast cells. The following applies: 0.167 mM L-arabinose at pH 6.5 and 5 mM at pH 4.5; 28 °C; labelled compound.

In assay [5] the target is T4, A. thaliana STP7 (Arabidopsis thaliana, UniProt O04249).
T4 construct: no tag mentioned
T4 sequence (O04249 1-513): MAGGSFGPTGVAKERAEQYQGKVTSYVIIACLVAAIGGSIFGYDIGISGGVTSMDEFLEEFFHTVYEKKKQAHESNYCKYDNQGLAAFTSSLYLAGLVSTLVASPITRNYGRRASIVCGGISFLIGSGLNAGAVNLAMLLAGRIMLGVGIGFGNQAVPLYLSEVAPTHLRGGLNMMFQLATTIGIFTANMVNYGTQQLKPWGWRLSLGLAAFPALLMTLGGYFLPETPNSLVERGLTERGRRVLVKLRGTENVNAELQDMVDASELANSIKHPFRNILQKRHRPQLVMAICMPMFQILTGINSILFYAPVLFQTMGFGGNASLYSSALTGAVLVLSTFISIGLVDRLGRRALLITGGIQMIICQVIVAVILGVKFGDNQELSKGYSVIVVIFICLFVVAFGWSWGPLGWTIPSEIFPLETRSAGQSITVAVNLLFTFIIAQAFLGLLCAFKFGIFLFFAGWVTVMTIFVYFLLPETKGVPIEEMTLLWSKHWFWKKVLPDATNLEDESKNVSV
Kind of assay: […]-L-arabinose uptake, yeast cells. The settings on record: 5 mM L-arabinose, sodium citrate pH 4.5, 28 °C; labelled compound.

T2 sequence (Q1EG32 entry or part of it H388P, form open): as the sequence (Q1EG32 entry or part of it) above, with H388P counted along it

For `OC[C@H]1OC(O)[C@H](O)[C@@H](O)[C@@H]1O` (stereo partly drawn) [D-glucose], the “% inhibition at 0.833 mM” value in assay [1] was 4.5±17.6%. In addition, the “Inhibition of L-arabinose uptake by competing sugar (glucose in 22.1, xylose in 22.2)” value in assay [2] came to 0±8.2%.

Consider `OC1OC[C@@H](O)[C@H](O)[C@H]1O` (stereo partly drawn) [D-xylose], for which the “% inhibition at 0.833 mM” value in assay [1] is given as 13.4±7.9%. For the same molecule, the Km in assay [3] worked out at 9.16 ± 3.35 mM. Besides, the “Inhibition of L-arabinose uptake by competing sugar (glucose in 22.1, xylose in 22.2)” value in assay [2] was 10.9±6.3%.

With `OC1OC[C@H](O)[C@H](O)[C@H]1O` (stereo partly drawn) [L-arabinose], the “14C-L-arabinose uptake, yeast cells” value in assay [4] was “XLT1 or P. chrysogenum AraT had significantly higher L-arabinose uptake rates than the control strain”; in assay [5], “The strain expressing A. thaliana STP7 had also significantly higher uptake”. The Km in assay [3] is 0.207 ± 0.079 mM.
